Results as given in US20080241215A1, “LOCAL VASCULAR DELIVERY OF PROBUCOL ALONE OR IN COMBINATION WITH SIROLIMUS TO TREAT RESTENOSIS, VULNERABLE PLAQUE, AAA AND STROKE” (priority 2007, published 2008).

Experiments:
[1] = test system: patients undergoing coronary angioplasty; assay: MVP randomized clinical trial (angiographic and clinical endpoints); assay type: in vivo, human
Source text: In addition, the invention enables the skilled practitioner to use probucol in conjunction with other percutaneous coronary interventions such as stenting if it is deemed appropriate. The present invention concerns the IVUS substudy from the MVP restenosis trial. MVP was a double-blind placebo-controlled randomized clinical trial with four study groups. The protocol was approved by the Montreal Heart Institute institutional review board. The MVP study design, inclusion and exclusion criteria have been previously described (N Engl J Med 1997; 365-372). Briefly, patients referred for elective coronary angioplasty were evaluated at least 30 days prior to their scheduled procedure. Eligible patients were asked to provide written informed consent. Patients were eligible if they were scheduled to undergo standard balloon angioplasty on at least one native coronary artery and had at least one de novo target lesion with luminal narrowing of fifty percent or more by caliper measurements. Beginning thirty days prior to scheduled angioplasty, patients were randomly assigned to receive either probucol alone, multivitamins alone, the combination of probucol and multivitamins, or placebo. Probucol 500 mg or matched placebo was administered twice daily. The multivitamin complex, consisting of vitamin E 700 IU, vitamin C 500 mg and beta-carotene 30,000 IU, or matched placebo was also administered in one tablet twice daily. […] Balloon angioplasty was performed according to standard techniques. […] The sequence of contrast injections with the exact degree of angulation was recorded and used for every angiogram. Coronary arteriograms (pre-, post-procedure, and final follow-up) were analyzed together using the Coronary Measurement System (CMS), as previously reported. Patient follow-up included clinical evaluation, exercise treadmill testing, blood chemistry, pill count and drug level measurements, and dietary assessment and intervention. Patients were readmitted for follow-up coronary angiography at five to seven months. Patients in whom arteriography was performed for clinical reasons before the fifth month returned for repeat angiographic examination at five to seven months if no definite angiographic restenosis was present on at least one dilated site. During follow-up, patients with recurrence or exacerbation of anginal symptoms were treated with medical therapy or revascularization procedures (reangioplasty or Coronary Bypass Surgery) as clinically indicated. Patients with angiographic restenosis (lesion>50%. at follow-up) without clinical evidence of ischemia were not subjected to further interventional procedures.

LDL = LDL peroxidation lag phase ex vivo (diene conjugates after addition of copper ions); assay type: biochemical, human; details: treatment for one month; compared with vitamins alone or the combination of probucol and vitamins; preliminary results
[2] = test system: coronary arteries (angioplasty site); assay: IVUS substudy of the MVP restenosis trial; assay type: in vivo, human; details: for EEM area / Lumen area / Wall area: per segment, mean ± SD
Experimental: The present invention concerns the IVUS substudy from the MVP restenosis trial. MVP was a double-blind placebo-controlled randomized clinical trial with four study groups. The protocol was approved by the Montreal Heart Institute institutional review board. The MVP study design, inclusion and exclusion criteria have been previously described (N Engl J Med 1997; 365-372). Briefly, patients referred for elective coronary angioplasty were evaluated at least 30 days prior to their scheduled procedure. Eligible patients were asked to provide written informed consent. Patients were eligible if they were scheduled to undergo standard balloon angioplasty on at least one native coronary artery and had at least one de novo target lesion with luminal narrowing of fifty percent or more by caliper measurements.
Beginning thirty days prior to scheduled angioplasty, patients were randomly assigned to receive either probucol alone, multivitamins alone, the combination of probucol and multivitamins, or placebo. Probucol 500 mg or matched placebo was administered twice daily. The multivitamin complex, consisting of vitamin E 700 IU, vitamin C 500 mg and beta-carotene 30,000 IU, or matched placebo was also administered in one tablet twice daily. All patients received an extra dose of probucol 1000 mg and/or vitamin E 2000 IU and/or matched placebos twelve hours before angioplasty, according to randomization assignment. […] All patients received aspirin 325 mg daily started at least thirty days before procedure and continued for the study period. Balloon angioplasty was performed according to standard techniques. Intracoronary nitroglycerin (0.3 mg) was given for each target artery for both pre- and post-dilatation angiography and at follow-up. The sequence of contrast injections with the exact degree of angulation was recorded and used for every angiogram. Coronary arteriograms (pre-, post-procedure, and final follow-up) were analyzed together using the Coronary Measurement System (CMS), as previously reported. Patient follow-up included clinical evaluation, exercise treadmill testing, blood chemistry, pill count and drug level measurements, and dietary assessment and intervention. Patients were readmitted for follow-up coronary angiography at five to seven months. Patients in whom arteriography was performed for clinical reasons before the fifth month returned for repeat angiographic examination at five to seven months if no definite angiographic restenosis was present on at least one dilated site. During follow-up, patients with recurrence or exacerbation of anginal symptoms were treated with medical therapy or revascularization procedures (reangioplasty or Coronary Bypass Surgery) as clinically indicated. Patients with angiographic restenosis (lesion>50%. at follow-up) without clinical evidence of ischemia were not subjected to further interventional procedures.
IVUS examinations were performed using 30 MHZ, 3.5 French mechanical (1800 rpm) ultrasound catheters (Boston Scientific, Natick, Mass.) and a dedicated imaging console (Hewlett Packard, Andover, Mass.) (Curr Opin Cardiol 1994; 9:627-633). In six patients, both examinations were performed using 20 MHZ, 3.5 French 64-element IVUS catheters (Endosonics, Pleasanton, Calif.). IVUS studies were first performed after coronary angioplasty (after final balloon inflation) and then after follow-up angiography (before any subsequent intervention) and were always preceded by administration of intracoronary nitroglycerin (0.3 mg). IVUS imaging was monitored by an experienced cardiologist, but the angioplasty operator was blinded to ultrasound results to avoid altering standard balloon angioplasty practice. The IVUS catheter was advanced distal to the dilated site to an easily recognizable landmark, most often a side branch, which was noted and used for follow-up IVUS examination. One angiographic view was recorded on videotape before beginning pullback of the IVUS catheter. […]

[3] = probucol given alone, compared to placebo
[4] = Follow-up Post PTCA (follow-up minus after angioplasty), listed as Probucol Alone
[5] = Follow-up Post PTCA, efficacy analysis in compliant patients
[6] = Follow-up, listed as Probucol Alone

CC(C)(Sc1cc(C(C)(C)C)c(O)c(C(C)(C)C)c1)Sc1cc(C(C)(C)C)c(O)c(C(C)(C)C)c1 [probucol, 4,4′-([1-methylethylidene)bis(thio)]bis-[2,6-bis(1,1-dimethylethyl)phenol]]
patients with restenosis ([1]; MVP study): over twenty | reduction in the need for repeat angioplasty ([1]; probucol given alone, at 6 month, compared to placebo): fifty-eight | reduction in angiographic lumen loss [1, 3]: sixty-eight | reduction in restenosis rate per segment [1, 3]: forty-seven | protection against LDL oxidation (lag phase for LDL peroxidation) (LDL): significantly greater protection against LDL oxidation | EEM area ([2]; After Angioplasty): 12.20 ± 4.66 mm^2 | Lumen area ([2]; After Angioplasty): 4.62 ± 1.59 mm^2 | Wall area ([2]; After Angioplasty): 7.57 ± 3.98 mm^2 | Lumen area, change ([2]; Follow-up Post PTCA (follow-up minus after angioplasty)): −0.15 ± 1.70 mm^2 | EEM area, change [2, 4]: 1.74 ± 1.80 mm^2 | Wall area, change [2, 4]: 1.89 ± 1.87 mm^2 | EEM area, change ([2]; Follow-up Post PTCA (follow-up minus after angioplasty), listed as probucol alone): 1.74 mm^2 | EEM area, change [2, 5]: 1.74 ± 1.80 mm^2 | Lumen area, change [2, 5]: −0.15 ± 1.70 mm^2 | Wall area, change [2, 5]: 1.89 ± 1.87 mm^2 | EEM area [2, 6]: 13.93 ± 4.74 mm^2 | Lumen area [2, 6]: 4.47 ± 1.93 mm^2 | Wall area [2, 6]: 9.46 ± 4.36 mm^2 | patients with an increase in EEM area of at least 1 mm^2 at follow-up ([2]; in vivo): 72.0% | increase in vessel enlargement ([2]; probucol only compared with placebo): seven hundred-thirty
